Results reported in the supplement of paper PMC11699113.

Tested on: ED cells (E. derm NBM-6, ATCC CCL-57)
Experiment: cell viability (ATP, CellTiter-Glo) relative to untreated control (fraction of control); higher = less cytotoxic

Nc1nc(NC2CC2)c2ncn([C@H]3C=C[C@@H](CO)C3)c2n1 [abacavir]
cell viability
Settings	0.5 µM	2 µM	5 µM	10 µM	25 µM	50 µM	80 µM	100 µM	200 µM	300 µM
incubation time: 1h	1	0.999	1	1	1	0.999	0.994	0.99	0.983	0.982
incubation time: 24h	1.01	1.02	1.01	1.01	0.99	0.944	0.924	0.91	0.846	0.788
incubation time: 72h	1.02	1.03	0.999	0.978	0.925	0.846	0.785	0.745	0.604	0.506
incubation time: 144h	1.04	1.02	0.992	0.949	0.884	0.816	0.754	0.735	0.596	0.458

COC(=O)N[C@H](C(=O)N[C@@H](Cc1ccccc1)[C@@H](O)CN(Cc1ccc(-c2ccccn2)cc1)NC(=O)[C@@H](NC(=O)OC)C(C)(C)C)C(C)(C)C [atazanavir]
cell viability
Settings	0.125 µM	0.25 µM	0.5 µM	2 µM	10 µM	20 µM	50 µM	80 µM	100 µM	124 µM
incubation time: 1h	1.05	1.05	1.05	1.06	1.06	1.04	1.03	1.01	1.02	1.02
incubation time: 24h	1.07	1.08	1.07	1.07	1.06	1.06	1.03	0.979	0.941	0.798
incubation time: 72h	1.09	1.12	1.1	1.1	1.13	1.12	1.09	0.802	0.416	0.0698
incubation time: 144h	1.02	1.05	1.03	1.03	1.07	1.07	1.04	0.554	0.0524	0.00492

O=C(NCc1c(F)cc(F)cc1F)c1cn2c(c(O)c1=O)C(=O)N1[C@H]3CC[C@H](C3)O[C@@H]1C2 [bictegravir]
cell viability
Settings	0.06 µM	0.125 µM	0.325 µM	2 µM	5 µM	10 µM	20 µM	30 µM	42 µM	concentration (µM): C04 (printed 10, out of sequence, likely typo)
incubation time: 1h	1	0.997	0.994	0.995	0.987	0.99	0.993	0.994	0.98	1
incubation time: 24h	1.01	0.998	1.01	1.01	1.02	1.01	1.03	1.01	1	1.01
incubation time: 72h	1.07	1.09	1.1	1.1	1.11	1.11	1.08	1.05	0.997	1.09
incubation time: 144h	1.07	1.06	1.07	1.06	1.06	1.05	1.01	0.972	0.952	1.07

O=C1Nc2ccc(Cl)cc2[C@@](C#CC2CC2)(C(F)(F)F)O1 [efavirenz]
cell viability
Settings	0.5 µM	2 µM	5 µM	10 µM	20 µM	40 µM	50 µM	75 µM	100 µM	150 µM
incubation time: 1h	1.05	1.04	1.02	0.985	0.902	0.523	0.35	0.164	0.0891	0.0482
incubation time: 24h	0.985	0.989	1.01	0.999	0.979	0.618	0.194	0.00645	0.0077	0.00431
incubation time: 72h	1.04	1.04	1.04	1.03	1.01	0.907	0.659	0.0635	0.0176	0.00453
incubation time: 144h	1.02	1.02	1.02	1	0.969	0.862	0.574	0.128	0.113	0.00579

Nc1nc(=O)n([C@@H]2CS[C@H](CO)O2)cc1F [emtricitabine]
cell viability
Settings	0.5 µM	2 µM	5 µM	10 µM	25 µM	50 µM	80 µM	100 µM	200 µM	300 µM
incubation time: 1h	0.999	0.996	1.01	1.01	0.998	1	1.01	1.01	0.998	1.01
incubation time: 24h	0.998	1.02	1.02	1.04	1.04	1.03	1.03	1.03	1.01	1
incubation time: 72h	1.03	1.05	1.05	1.05	1.05	1.04	1.04	1.03	0.999	0.999
incubation time: 144h	1.03	1.05	1.06	1.06	1.06	1.05	1.04	1.05	1.05	1.02

CC[C@H](C)[C@H](NC(=O)[C@H](CC(C)C)NC(=O)[C@H](CO)NC(=O)[C@H](Cc1cnc[nH]1)NC(=O)[C@@H](NC(=O)[C@H](CC(C)C)NC(=O)[C@H](CO)NC(=O)[C@@H](NC(=O)[C@H](Cc1ccc(O)cc1)NC(C)=O)[C@@H](C)O)[C@@H](C)CC)C(=O)N[C@@H](CCC(=O)O)C(=O)N[C@@H](CCC(=O)O)C(=O)N[C@@H](CO)C(=O)N[C@@H](CCC(N)=O)C(=O)N[C@@H](CC(N)=O)C(=O)N[C@@H](CCC(N)=O)C(=O)N[C@@H](CCC(N)=O)C(=O)N[C@@H](CCC(=O)O)C(=O)N[C@@H](CCCCN)C(=O)N[C@@H](CC(N)=O)C(=O)N[C@@H](CCC(=O)O)C(=O)N[C@@H](CCC(N)=O)C(=O)N[C@@H](CCC(=O)O)C(=O)N[C@@H](CC(C)C)C(=O)N[C@@H](CC(C)C)C(=O)N[C@@H](CCC(=O)O)C(=O)N[C@@H](CC(C)C)C(=O)N[C@@H](CC(=O)O)C(=O)N[C@@H](CCCCN)C(=O)N[C@@H](Cc1c[nH]c2ccccc12)C(=O)N[C@@H](C)C(=O)N[C@@H](CO)C(=O)N[C@@H](CC(C)C)C(=O)N[C@@H](Cc1c[nH]c2ccccc12)C(=O)N[C@@H](CC(N)=O)C(=O)N[C@@H](Cc1c[nH]c2ccccc12)C(=O)N[C@@H](Cc1ccccc1)C(N)=O [enfuvirtide]
cell viability
Settings	0.03 µM	0.06 µM	0.125 µM	0.25 µM	0.5 µM	1 µM	2 µM	5 µM	8 µM	11 µM
incubation time: 1h	1.05	1.06	1.06	1.07	1.05	1.05	1.05	1.05	1.06	1.06
incubation time: 24h	1.06	1.07	1.06	1.07	1.06	1.06	1.06	1.07	1.05	1.04
incubation time: 72h	1.05	1.06	1.06	1.08	1.06	1.06	1.07	1.06	1.05	1.06
incubation time: 144h	1.02	1.03	1.03	1.04	1.03	1.03	1.04	1.04	1.06	1.04

Cc1cc(C#N)cc(C)c1Oc1nc(Nc2ccc(C#N)cc2)nc(N)c1Br [etravirine]
cell viability
Settings	0.5 µM	2 µM	5 µM	10 µM	25 µM	50 µM	80 µM	100 µM	200 µM	300 µM
incubation time: 1h	1.03	1.02	0.959	0.693	0.424	0.372	0.346	0.329	0.328	0.322
incubation time: 24h	1.06	1.02	1.04	0.986	0.866	0.817	0.679	0.674	0.413	0.249
incubation time: 72h	1.01	0.978	0.953	0.894	0.829	0.796	0.75	0.723	0.541	0.412
incubation time: 144h	1	0.994	0.97	0.927	0.871	0.835	0.784	0.775	0.626	0.525

CC(C)CN(C[C@@H](OP(=O)(O)O)[C@H](Cc1ccccc1)NC(=O)O[C@H]1CCOC1)S(=O)(=O)c1ccc(N)cc1 [fosamprenavir]
cell viability
Settings	0.03 µM	0.06 µM	0.125 µM	0.25 µM	0.5 µM	2 µM	5 µM	10 µM	20 µM	32 µM
incubation time: 1h	1.1	1.13	1.11	1.11	1.11	1.1	1.1	1.11	1.1	1.08
incubation time: 24h	1.01	1.01	1.01	1	0.994	1	0.979	0.978	0.978	0.949
incubation time: 72h	1.08	1.08	1.08	1.08	1.08	1.08	1.04	1.03	1	0.953
incubation time: 144h	1.02	1.04	1.04	1.06	1.05	1.05	1.04	1.02	0.993	0.957

Nc1ccn([C@@H]2CS[C@H](CO)O2)c(=O)n1 [lamivudine]
cell viability
Settings	0.5 µM	2 µM	5 µM	10 µM	20 µM	40 µM	50 µM	75 µM	100 µM	150 µM
incubation time: 1h	1.04	1.02	1.03	1.03	1.02	1.01	1.01	1.02	0.997	0.979
incubation time: 24h	1.02	1.03	1.03	1.03	1.03	1.03	1.02	1.03	1.03	1.04
incubation time: 72h	1.03	1.04	1.05	1.04	1.06	1.05	1.04	1.04	1.04	1.02
incubation time: 144h	1.03	1.03	1.04	1.04	1.04	1.04	1.03	1.04	1.03	1

Cc1ccnc2c1NC(=O)c1cccnc1N2C1CC1 [nevirapine]
cell viability
Settings	0.5 µM	2 µM	5 µM	10 µM	25 µM	50 µM	80 µM	100 µM	200 µM	300 µM
incubation time: 1h	1.05	1.04	1.05	1.05	1.05	1.04	1.05	1.04	1.05	1.04
incubation time: 24h	1.06	1.06	1.07	1.07	1.08	1.09	1.06	1.08	1.05	1.04
incubation time: 72h	1.04	1.05	1.07	1.07	1.06	1.06	1.03	1.02	0.958	0.924
incubation time: 144h	1	1.02	1.02	1.03	1.02	0.989	0.962	0.961	0.886	0.848

Cc1nnc(C(=O)NC(C)(C)c2nc(C(=O)NCc3ccc(F)cc3)c(O)c(=O)n2C)o1 [raltegravir]
cell viability
Settings	0.5 µM	2 µM	5 µM	10 µM	25 µM	50 µM	80 µM	100 µM	200 µM	300 µM
incubation time: 1h	1.07	1.07	1.07	1.08	1.07	1.06	1.05	1.07	1.06	1.06
incubation time: 24h	1.02	1.02	1.02	1.03	1.02	1.01	0.983	0.999	0.982	0.963
incubation time: 72h	1.03	1.05	1.04	1.04	1.04	1.05	1.01	1.02	0.992	0.963
incubation time: 144h	0.994	0.999	1.03	1.03	1.04	1.04	1.03	1.02	0.991	0.955

CC(C)c1nc(CN(C)C(=O)N[C@H](C(=O)N[C@@H](Cc2ccccc2)C[C@H](O)[C@H](Cc2ccccc2)NC(=O)OCc2cncs2)C(C)C)cs1 [ritonavir]
cell viability
Settings	0.5 µM	2 µM	5 µM	10 µM	25 µM	50 µM	80 µM	100 µM	200 µM	300 µM
incubation time: 1h	1.05	1.05	1.05	1.03	1	0.976	0.899	0.879	0.881	0.887
incubation time: 24h	1.03	0.991	0.964	0.922	0.886	0.834	0.426	0.372	0.363	0.363
incubation time: 72h	1.01	0.949	0.868	0.81	0.763	0.686	0.00794	0.00652	0.00418	0.00806
incubation time: 144h	1	0.966	0.901	0.854	0.788	0.703	0.0753	0.0037	0.00476	0.00437

CC(C)(C)NC(=O)[C@@H]1C[C@@H]2CCCC[C@@H]2CN1C[C@@H](O)[C@H](Cc1ccccc1)NC(=O)[C@H](CC(N)=O)NC(=O)c1ccc2ccccc2n1 [saquinavir]
cell viability
Settings	0.25 µM	0.5 µM	2 µM	5 µM	10 µM	20 µM	25 µM	30 µM	50 µM	65 µM
incubation time: 1h	1.03	1.04	1.03	1.04	1.03	1	1.01	1.02	0.958	0.868
incubation time: 24h	0.995	1.01	1	0.992	0.955	0.896	0.872	0.868	0.75	0.583
incubation time: 72h	1.04	1.03	1.01	0.956	0.904	0.798	0.753	0.687	0.306	0.0705
incubation time: 144h	1.02	1.02	1	0.951	0.922	0.808	0.743	0.699	0.201	0.0214
